Structures can show the parent of a compound that is named as a salt.
Target: T1, human LOXL2 (Homo sapiens, UniProt Q9Y4K0)
T1 construct: expressed in transfected cells; 10-20x concentrated conditioned media used as the enzyme source
T1 sequence (Q9Y4K0 26-774): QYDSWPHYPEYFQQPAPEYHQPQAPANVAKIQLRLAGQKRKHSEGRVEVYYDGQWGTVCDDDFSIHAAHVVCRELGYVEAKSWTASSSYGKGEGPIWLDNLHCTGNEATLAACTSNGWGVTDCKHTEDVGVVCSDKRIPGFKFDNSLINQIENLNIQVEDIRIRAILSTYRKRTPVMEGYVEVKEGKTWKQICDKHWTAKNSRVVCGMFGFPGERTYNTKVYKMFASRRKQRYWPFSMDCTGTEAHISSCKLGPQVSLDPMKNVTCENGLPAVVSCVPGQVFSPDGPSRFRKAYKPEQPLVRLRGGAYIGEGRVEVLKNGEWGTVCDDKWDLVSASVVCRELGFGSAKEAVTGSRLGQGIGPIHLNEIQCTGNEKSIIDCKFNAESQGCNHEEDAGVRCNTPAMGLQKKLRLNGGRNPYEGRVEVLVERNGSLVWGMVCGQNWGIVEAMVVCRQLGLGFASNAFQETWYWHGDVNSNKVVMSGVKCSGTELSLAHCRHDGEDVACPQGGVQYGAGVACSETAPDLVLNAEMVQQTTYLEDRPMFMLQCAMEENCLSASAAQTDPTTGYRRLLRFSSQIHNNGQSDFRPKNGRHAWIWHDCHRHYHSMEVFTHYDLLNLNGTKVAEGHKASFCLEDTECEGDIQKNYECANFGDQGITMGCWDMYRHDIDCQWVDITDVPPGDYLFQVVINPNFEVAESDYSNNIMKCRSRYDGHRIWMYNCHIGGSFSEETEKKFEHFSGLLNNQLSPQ
Assay: Human LOXL2 amine oxidase activity assay (Amplex Red fluorescence)
Type: biochemical
Conditions: concentrated conditioned media from CHO cells stably expressing human LOXL2; 2 h at 37° C. preincubation; DAP substrate
Procedure: Example B-1: Human LOXL2 Amine Oxidase Activity Assay
LOXL2 amine oxidase activity is evaluated by measuring Amplex Red fluorescence using 10-20× concentrated conditioned media from CHO cells stably expressing human LOXL2.
To assay for amine oxidase activity, 10 μL of the concentrated conditioned media is incubated with 2 μL of test compound in DMSO and 73 μL Assay Buffer (50 mM Borate Buffer, pH8) for 2 h at 37° C. After the 2 h incubation, 5 ul of 10 mM 1,5-Diaminopentane (DAP) diluted in Assay Buffer and 10 μl of Amplex Red Mix (8.5 μl Assay Buffer+0.5 μl of 10 mM Amplex Red+1 μl of 500 U/ml Horseradish Peroxidase) are added and the plate mixed and immediately placed on the FlexStaion for fluorescence measurements. Fluorescence is read in kinetic mode every 2 min for 1 hour at excitation=544 and emission=590. The amine oxidase activity is calculated from the slope of the linear portion of the curve.

Row | SMILES | IC50 [nM]
1 | COc1ccc(Cn2ccc3cc(Oc4cc(CN)ncn4)ccc32)cn1 [Compound 1-29, (6-((1-((6-Methoxypyridin-3-yl)methyl)-1H-indol-5-yl)oxy)pyrimidin-4-yl)methanamine] | < 100
2 | COc1ccc(Cn2c(C)cc3c(Oc4cc(CN)ncn4)cccc32)cn1 [Compound 1-30, (6-((1-((6-Methoxypyridin-3-yl)methyl)-2-methyl-1H-indol-4-yl)oxy)pyrimidin-4-yl)methanamine] | < 100
3 | COc1ccc(Cn2cc(C)c3c(Oc4cc(CN)ncn4)cccc32)cn1 [Compound 1-31, (6-((1-((6-Methoxypyridin-3-yl)methyl)-3-methyl-1H-indol-4-yl)oxy)pyrimidin-4-yl)methanamine] | < 100
4 | Cn1cc(-n2ccc3c(Oc4cc(CN)ncn4)cccc32)cn1 [Compound 1-32, (6-((1-(1-Methyl-1H-pyrazol-4-yl)-1H-indol-4-yl)oxy)pyrimidin-4-yl)methanamine] | < 100
5 | CN(C)C(=O)c1cccc(COc2cc(CN)ncn2)c1 [Compound 1-33, 3-(((6-(Aminomethyl)pyrimidin-4-yl)oxy)methyl)-N,N-dimethylbenzamide] | < 100
6 | CC(C)(O)CNC(=O)c1cccc(COc2cc(CN)ncn2)c1 [Compound 1-34, 3-(((6-(Aminomethyl)pyrimidin-4-yl)oxy)methyl)-N-(2-hydroxy-2-methylpropyl)benzamide] | < 100
7 | CS(=O)(=O)CCNC(=O)c1cccc(COc2cc(CN)ncn2)c1 [Compound 1-37, 3-(((6-(Aminomethyl)pyrimidin-4-yl)oxy)methyl)-N-(2-(methylsulfonyl)ethyl)benzamide] | < 100
8 | NCc1cc(OCc2cccc(C(=O)NCCN3CCOC3=O)c2)ncn1 [Compound 1-38, 3-(((6-(Aminomethyl)pyrimidin-4-yl)oxy)methyl)-N-(2-(2-oxooxazolidin-3-yl)ethyl)benzamide] | < 100
9 | NCc1cc(OCc2cccc(C(=O)NCCn3cccn3)c2)ncn1 [Compound 1-39, N-(2-(1H-Pyrazol-1-yl)ethyl)-3-(((6-(aminomethyl)pyrimidin-4-yl)oxy)methyl)benzamide] | < 100
10 | NCc1cc(OCc2cccc(C(=O)Nc3ccccc3)c2)ncn1 [Compound 1-40, 3-(((6-(Aminomethyl)pyrimidin-4-yl)oxy)methyl)-N-phenylbenzamide] | < 100
11 | NCc1cc(OCc2cccc(C(=O)NCc3ccccc3)c2)ncn1 [Compound 1-41, 3-(((6-(Aminomethyl)pyrimidin-4-yl)oxy)methyl)-N-benzylbenzamide] | < 100
12 | NCc1cc(Nc2cccc(C(=O)Nc3ccccc3)c2)ncn1 [Compound 1-42, 3-((6-(Aminomethyl)pyrimidin-4-yl)amino)-N-phenylbenzamide] | < 100
13 | NCc1cc(NCc2cccc(C(=O)Nc3ccccc3)c2)ncn1 [Compound 1-43, 3-(((6-(Aminomethyl)pyrimidin-4-yl)amino)methyl)-N-phenylbenzamide] | < 100
14 | NCc1cc(NCc2cccc(C(=O)Nc3ccc(C(=O)O)cc3)c2)ncn1 [Compound 1-44, 4-(3-(((6-(Aminomethyl)pyrimidin-4-yl)amino)methyl)benzamido)benzoic acid] | 100 to 1000
15 | CN(Cc1cccc(C(=O)Nc2ccccc2)c1)c1cc(CN)ncn1 [Compound 1-45, 3-(((6-(Aminomethyl)pyrimidin-4-yl)(methyl)amino)methyl)-N-phenylbenzamide] | 100 to 1000
16 | NCc1cc(OCc2cccc(C(=O)NCCn3cnnn3)c2)ncn1 [Compound 1-46, N-(2-(1H-Tetrazol-1-yl)ethyl)-3-(((6-(aminomethyl)pyrimidin-4-yl)oxy)methyl)benzamide] | < 100
17 | CS(=O)(=O)CCN1C(=O)CCc2c(Oc3cc(CN)ncn3)cccc21 [Compound 1-47, 5-((6-(Aminomethyl)pyrimidin-4-yl)oxy)-1-(2-(methylsulfonyl)ethyl)-3,4-dihydroquinolin-2(1H)-one] | < 100
18 | NCc1cc(Oc2cccc3c2ccn3CCO)ncn1 [Compound 1-48, 2-(4-((6-(Aminomethyl)pyrimidin-4-yl)oxy)-1H-indol-1-yl)ethan-1-ol] | < 100

Row | SMILES | IC50 [nM]
19 | NCc1cc(Oc2cccc3c2ccn3C2COC2)ncn1 [Compound 1-49, (6-((1-(Oxetan-3-yl)-1H-indol-4-yl)oxy)pyrimidin-4-yl)methanamine] | 100 to 1000
20 | NCc1cc(Oc2cccc(C(=O)N3CCc4ccc(Cl)cc43)c2)ncn1 [Compound 1-50, (3-((6-(Aminomethyl)pyrimidin-4-yl)oxy)phenyl)(6-chloroindolin-1-yl)methanone] | < 100
21 | NCc1cc(Oc2cccc(C(=O)N3CCc4cccnc43)c2)ncn1 [Compound 1-51, (3-((6-(Aminomethyl)pyrimidin-4-yl)oxy)phenyl)(2,3-dihydro-H-pyrrolo[2,3-b]pyridin-1-yl)methanone, hydrochloride] | < 100
22 | NCc1cc(Oc2cccc(C(=O)N3CCc4ccncc43)c2)ncn1 [Compound 1-52, (3-((6-(Aminomethyl)pyrimidin-4-yl)oxy)phenyl)(2,3-dihydro-H-pyrrolo[2,3-c]pyridin-1-yl)methanone, hydrochloride] | < 100
23 | NCc1cc(Oc2cccc(C(=O)NCc3cc4ccccc4[nH]3)c2)ncn1 [Compound 1-53, N-((1H-Indol-2-yl)methyl)-3-((6-(aminomethyl)pyrimidin-4-yl)oxy)benzamide] | < 100
24 | NCc1cc(Oc2cccc(C(=O)NCc3cccnc3)c2)ncn1 [Compound 1-54, 3-((6-(Aminomethyl)pyrimidin-4-yl)oxy)-N-(pyridin-3-ylmethyl)benzamide] | < 100
25 | NCc1cc(Oc2cccc(C(=O)NCc3ccccc3)c2)ncn1 [Compound 1-56, 3-((6-(Aminomethyl)pyrimidin-4-yl)oxy)-N-benzylbenzamide] | < 100
26 | NCc1cc(Oc2cccc(C(=O)N[C@@H](CO)c3ccccc3)c2)ncn1 [Compound 1-57, (R)-3-((6-(Aminomethyl)pyrimidin-4-yl)oxy)-N-(2-hydroxy-1-phenylethyl)benzamide] | < 100
27 | NCc1cc(Oc2cccc(C(=O)N3CCN(c4ccccn4)CC3)c2)ncn1 [Compound 1-58, (3-((6-(Aminomethyl)pyrimidin-4-yl)oxy)phenyl)(4-(pyridin-2-yl)piperazin-1-yl)methanone] | < 100
28 | CC1(C)CCN(C(=O)c2cccc(Oc3cc(CN)ncn3)c2)CC1 [Compound 1-59, (3-((6-(Aminomethyl)pyrimidin-4-yl)oxy)phenyl)(4,4-dimethylpiperidin-1-yl)methanone] | < 100
29 | NCc1cc(Oc2cccc3[nH]ncc23)ncn1 [Compound 1-60, (6-((1H-Indazol-4-yl)oxy)pyrimidin-4-yl)methanamine] | < 100
30 | NCc1cc(-n2ncc3c(CO)cccc32)ncn1 [Compound 1-61, (1-(6-(Aminomethyl)pyrimidin-4-yl)-1H-indazol-4-yl)methanol] | < 100
31 | NCc1cc(Oc2cccc(C(=O)NCc3ccc(-c4ccc(F)cc4)cc3)c2)ncn1 [Compound 1-62, 3-((6-(Aminomethyl)pyrimidin-4-yl)oxy)-N-((4′-fluoro-[1,1′-biphenyl]-4-yl)methyl)benzamide] | < 100
32 | NCc1cc(Oc2cccc(C(=O)NCc3ccc4ccccc4n3)c2)ncn1 [Compound 1-63, 3-((6-(Aminomethyl)pyrimidin-4-yl)oxy)-N-(quinolin-2-ylmethyl)benzamide] | < 100
33 | NCc1cc(Oc2cccc(C(=O)NCc3sc4ccccc4c3Cl)c2)ncn1 [Compound 1-64, 3-((6-(Aminomethyl)pyrimidin-4-yl)oxy)-N-((3-chlorobenzo[b]thiophen-2-yl)methyl)benzamide] | < 100
34 | NCc1cc(Oc2cccc(C(=O)NCc3cc4cc(F)ccc4[nH]3)c2)ncn1 [Compound 1-65, 3-((6-(Aminomethyl)pyrimidin-4-yl)oxy)-N-((5-fluoro-1H-indol-2-yl)methyl)benzamide] | < 100
35 | Cn1c(CNC(=O)c2cccc(Oc3cc(CN)ncn3)c2)cc2ccccc21 [Compound 1-66, 3-((6-(Aminomethyl)pyrimidin-4-yl)oxy)-N-((1-methyl-1H-indol-2-yl)methyl)benzamide] | < 100
36 | NCc1cc(Oc2cccc(C(=O)NCc3cc4cccnc4[nH]3)c2)ncn1 [Compound 1-67, N-((1H-Pyrrolo[2,3-b]pyridin-2-yl)methyl)-3-((6-(aminomethyl)pyrimidin-4-yl)oxy)benzamide] | < 100
